Holding throughout (test): NCI anticancer screen, dose series, 48 h
Experiment [1] concerns 786-0.
The test system of experiment [2] is CAKI-1.
Experiment [3] has as its system MDA-N.
The test system of experiment [4] is PC-3.
Experiment [5] relates to COLO 205.
Experiment [6] concerns EKVX.
Experiment [7] concerns HL-60.
For experiment [8], the system named is HCC 2998.
In experiment [9] the test system is U-251.
Experiment [10] relates to SW-620.
The test system of experiment [11] is MDA-MB-435.
The test system of experiment [12] is SK-MEL-5.
Experiment [13] relates to MOLT-4.
The subject of experiment [14] is LOX IMVI.
For experiment [15], the system named is TK-10.
Experiment [16] relates to SK-OV-3.
The subject of experiment [17] is NCI-H23.
For experiment [18], the system named is K562.
The test system of experiment [19] is RXF 393.

SMILES strings stand for the structures.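 Results reflect a 48-hour exposure of cells in 96-well plates to compound at five concentrations. GI50 marks 50% less growth.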 Active and inactive are the calls of the source. Cut-off read from the data, not from the text of the source: active = GI50 up to about 1.1 µM and inactive = higher. Bounds are passed on as bounds.

In the case of `Cc1cc(C)nc(NS(=O)(=O)c2ccc(NC(=O)NC(F)(F)F)cc2)n1`, the GI50 was > 100 µM (inactive) in experiment [1]; 1.95 µM (inactive) in experiment [2]; > 100 µM (inactive) in experiment [3]; > 100 µM (inactive) in experiment [4]; > 100 µM (inactive) in [5]; > 100 µM (inactive) in experiment [6]. Moreover, the GI50 in experiment [7], in experiment [8], in experiment [9], in experiment [10], in [11] and in experiment [12] was > 100 µM (inactive) in each case. In addition, the GI50 in experiment [13], in experiment [14], in [15], in experiment [16], in experiment [17] and in experiment [18] was > 100 µM (inactive) in each case. Further, the GI50 in experiment [19] was > 100 µM (inactive).

In the case of `CSc1s[s+]c(SC)c1-c1ccccc1`, the GI50 in experiment [1] was 14.1 µM (inactive); in experiment [2], 17.1 µM (inactive); in experiment [3], 16.7 µM (inactive); in experiment [4], 21.7 µM (inactive); in experiment [5], 18.4 µM (inactive); in experiment [6], 14.8 µM (inactive). In addition, the GI50 was 28.9 µM (inactive) in [7]; 5.62 µM (inactive) in [8]; 19.4 µM (inactive) in experiment [9]; 16.4 µM (inactive) in [10]; 18.9 µM (inactive) in [11]; 15.7 µM (inactive) in experiment [12]. For the same compound, the GI50 in experiment [13] is 46.1 µM (inactive); in experiment [14], 25.9 µM (inactive); in experiment [15] it was 15.5 µM (inactive); in [16], 15.9 µM (inactive); in [17], 16.9 µM (inactive); in experiment [18] it was 20.2 µM (inactive). For the same compound, the GI50 in experiment [19] was 16.3 µM (inactive).

Take `Cc1ccc(C(=O)/C=C(\O)C(=O)NC23CC4CC(CC(C4)C2)C3)cc1`: the GI50 is > 10 µM (inactive) in experiment [1]; > 10 µM (inactive) in experiment [2]; > 10 µM (inactive) in experiment [3]; 9.79 µM (inactive) in [4]; > 10 µM (inactive) in [5]; > 10 µM (inactive) in experiment [6]. Also, the GI50 in experiment [7] was 4.25 µM (inactive); in experiment [8], > 10 µM (inactive); in experiment [10], > 10 µM (inactive); in experiment [11] it was > 10 µM (inactive); in experiment [12], > 10 µM (inactive); in [13], 3.86 µM (inactive). Further, the GI50 in experiment [14] is 0.851 µM (active); in experiment [15] it was > 10 µM (inactive); in experiment [16], > 10 µM (inactive); in experiment [17], 5.43 µM (inactive); in experiment [18], 5.64 µM (inactive); in experiment [19], > 10 µM (inactive).

With `CC(C)[Si](OC1=CCC[C@H]2NC(=O)[C@@H](Cc3ccccc3)[C@@]12C)(C(C)C)C(C)C`, the GI50 in experiment [1] was 3.94 µM (inactive); in experiment [2], 3.85 µM (inactive); in experiment [3] it was 3.95 µM (inactive); in [4] it was 3.37 µM (inactive); in experiment [5], 2.33 µM (inactive); in experiment [6], 3.74 µM (inactive). Besides, the GI50 in [7] is 2.86 µM (inactive); in experiment [8], 2.18 µM (inactive); in [9], 3.62 µM (inactive); in experiment [10], 2.72 µM (inactive); in experiment [11], 4.04 µM (inactive); in experiment [12], 3.37 µM (inactive). The GI50 in experiment [13] was 3.89 µM (inactive); in experiment [14], 3.03 µM (inactive); in experiment [15] it was 9.98 µM (inactive); in experiment [16], 5.93 µM (inactive); in experiment [17] it was 4.98 µM (inactive); in experiment [18], 3.2 µM (inactive). In addition, the GI50 in experiment [19] is 4.16 µM (inactive).
